Where a SMILES comes first, the peptide text is derived from it.
Columns and labels:
[1] = test system: monocrotaline-induced model of PAH; assay: anti-inflammatory effect in monocrotaline-induced model of PAH (lymph node weight, heart homogenate cytokines by ELISA); assay type: in vivo, male Wistar Rats; settings: 0.06 mg/kg, MCT rats
From the text: In the experiment described in example 5, the animals were killed for postmortem analyses of inflammatory markers.
In 1 out of 5 patients with PAH, the mediastinal lymph nodes are enlarged due to inflammation-related edema (BERGIN, C. J., PARK, K. J. Lymph node enlargement in pulmonary arterial hypertension due to chronic thromboembolism. J Med Imaging Radiat Oncol, 52(1):18-23. 2008). Edematous organs weigh more, due to the increased liquid content, therefore we weighed several organs of the animals of example 5 post-euthanasia.
Samples of hearts of the monocrotaline study were investigated to uncover the potential anti-inflammatory action of SEQ ID NO: 19. Hearts were kept on ice during all sample homogenization processes. Lysis buffer containing 1% protease inhibitor cocktail (Sigma) diluted in phosphate-buffered saline (PBS) was added in a proportion of 1 mL for each sample. Sodium orthovanadate (SIGMA) 1 mM was also added. Tissues were homogenized and then centrifuged at 10,000 g for 10 min. Supernatants of each sample were collected into sterile identified tubes for measurements of total protein and cytokine levels (tumor necrosis factor (TNF)-α, interferon (INF)-γ, and interleukin (IL)-1β).
Total protein values in the samples were measured using the Bradford assay (BioRad, Hercules, Calif., USA), according to manufacturer's instructions. Briefly, the protocol was performed in a microplate in a final volume of 150 μl. A calibration curve linear range between 0.025 and 2.0 mg/ml was prepared with bovine serum albumin (BSA, SIGMA). Protein solutions were assayed in duplicate. Samples were diluted 20-fold into lysis buffer, and then 25 μl from these samples was loaded into each well. Using a multichannel pipet, 125 μl of Quick Start™ Bradford 1× Dye Reagent solution was added to yield a final volume of 150 μl. The samples were incubated at room temperature for 5 min, and the absorbance was then measured with a spectrophotometer at 595 nm (SpectraMax Microplate reader, Molecular Devices, San Jose, Calif., USA). The standard curve was plotted as a linear regression line that was interpolated with the mean absorbance of each sample in order to find a sample's total protein concentration expressed as mg/ml.
Concentrations of TNF-α, INF-γ, and IL-1β were measured using an enzyme-linked immunosorbent assay (ELISA) for heart homogenates. TNF-α (Catalog #900-K54) and INF-γ (Catalog #900-K98) kits were purchased from Peprotech (Rocky Hill, […]., USA) while the IL-1β (DY401) kit was from R&D Systems (Minneapolis, Minn., USA). The assays were performed in accordance with the manufacturer's recommendations.
Data analyses were performed with a statistical software package (Prism version 5.0, Graph-Pad Software, San Diego, Calif.). Data were expressed as mean±SEM. […]

[2] = test system: monocrotaline-induced model of pulmonary arterial hypertension (PAH); assay: hemodynamic parameters and heart remodeling in monocrotaline-induced model of PAH; assay type: in vivo, male Wistar Rats; settings: 0.06 mg/kg intranasal twice daily for 14 days
From the text: The monocrotaline (MCT) model is the most widely used animal model of PAH, being the oldest in existence and best described among the available models. This model offers the advantage of mimicking several key aspects of human PAH, including vascular remodeling, proliferation of smooth muscle cells, endothelial dysfunction, up-regulation of inflammatory cytokines, and right ventricle failure, after a single intraperitoneal or subcutaneous MCT injection (GOMEZ-ARROYO, J. G., FARKAS, L., ALHUSSAINI, A. A., FARKAS, D., KRASKAUSKAS, D., VOELKEL, N. F., BOGAARD, H. J. The Monocrotaline Model of Pulmonary Hypertension in Perspective. Am J Physiol Lund Cell Mol Physiol, 302(4): L363-9. 2012).
The currently preferred species for the study of MCT-induced PAH is the rat, with clinical signs of the illness manifesting in 3-7 days after the MCT injection in the form of anorexia, listlessness, failure to gain weight, and tachypnea. As the lung injury and vascular remodeling progress, the animals develop variable degrees of dyspnea, weakness, diarrhea and peripheral cyanosis (SCHOENTAL R., HEAD, M. A. Pathological changes in rats as a result of treatment with monocrotaline. Br J Cancer, 9(1):229-37. 1955). One week after the MCT injection, endothelial damage, inflammatory infiltration, and edema can be observed, but no increase in pulmonary arterial pressure (PAP). After two weeks, PAP is increased leading to right ventricle (RV) hypertrophy by the third week after drug administration (WEST, J., HEMMES, A. Experimental and transgenic models of pulmonary hypertension. Compr Physiol, 1(2):769-82. 2011).
To assess the potential benefit of SEQ ID NO: 19 in the treatment of PAH, we used adult healthy male Wistar Rats, which were then randomized into two groups: monocrotaline-induced PAH (MCT, n=14), in which animals received 60 mg/kg of MCT intraperitoneally (C2401, Sigma Chemical Co., St Louis, Mo., USA, Batch Number: WXBC4737V) and 2) control (CTRL, n=7), in which animals received a similar volume of saline solution intraperitoneally. This would be day 0 of the study. On the same day, prior to being randomized, the animals were subjected to echocardiographic analysis to establish a baseline. On day 14, another echocardiography was done, and PAH animals were further randomized to receive intranasal saline (SAL) or SEQ ID NO: 19 (0.06 mg/kg), twice daily for 14 days. On day 28, echocardiographies were repeated, RV exit area, left ventricle (LV) area, and PAT/PET (pulmonary arterial acceleration time (PAT)/pulmonary arterial ejection time (PET) ratio). In the PAH disease, the increase of PAP leads to an increase in RV area due to the increased pressure, and a decrease in the LV area, due to a reduction in blood flow to the left ventricle. […] Hemodynamic parameters were measured by invasive RV catheterization, including the systolic pressure of RV (RVSP) and the dP/dt ratio (a derivative of pressure/derivative of maximum time), which is correlated to the pressure in the RV.
The experiments were analyzed with two-way ANOVA, followed by Bonferroni's post-test to determine statistical significance. […]

[3] = RV catheterization, vs MCT+Vehicle
[4] = echocardiography, vs MCT+vehicle

## CC[C@H](C)[C@H](NC(=O)[C@H](Cc1c[nH]c2ccccc12)NC(=O)[C@H](Cc1ccccc1)NC(C)=O)C(=O)N[C@@H](C)C(=O)N[C@@H](Cc1c[nH]c2ccccc12)C(=O)N[C@@H](Cc1ccc(O)cc1)C(=O)N[C@@H](CCCCN)C(=O)N[C@@H](CC(C)C)C(=O)N[C@@H](C)C(N)=O [SEQ ID NO: 19, Ac-Phe-Trp-Ile-Ala-Trp-Tyr-Lys-Leu-Ala-NH2] (Ac-FWIAWYKLA-NH2)
[1]; ELISA
  IL-1β in heart homogenates: decreases the cytokines to values similar to control
  INF-γ in heart homogenates: decreases the cytokines to values similar to control
  TNF-α in heart homogenates: decreases the cytokines to values similar to control
[1]; post-euthanasia organ weight
  edematous weight gain of mediastinal lymph nodes: able to reduce the edematous weight gain
[2]; [3]
  dP/dt Max ratio: decrease
  systolic pressure of RV (RVSP): decrease in RVSP
[2]; [4]
  LV area: increase in LV area
  PAT/PET ratio: increases the PAT/PET ratio to values similar to the non-treated group (control)
  RV exit area: decrease in RV exit area

Source: US10905738B2, “Synthetic peptides, prodrugs, pharmaceutical compositions and uses” (Biozeus Desenvolvimento De Produtos Biofarmacêuticos, priority 2018, dated 2021)
